Structures are written as SMILES. In brackets after ≈: the same amount, converted by molar mass. Several values for one entry are separate records, joined by “and”; a condition that tells them apart may be missing. Identical values can stand only once.

We go through three compounds from US4524135A.

Series [1] can be described thus: Toxicity in mice. The following applies: mouse, in vivo, iv, administered intravenously. The text has this: | ^a Administered intravenously
Series [2] has as its system Staphylococcus aureus ATCC 6738P. Nature of the series: Agar-plate disc-diffusion test. Format: cell-based. The following applies: 1 mg/ml suspension in water, 7-mm disc, 24-48 hours at 25-37° C.
Series [3] relates to Streptococcus Group 9960. The following applies: agar dilution.
For series [4], the system named is Staphylococcus aureus X400. The following applies: agar dilution; methicillin-resistant strain.
In series [5] the test system is Streptococcus pyogenes C203. Nature of the series: Agar-dilution test.
Series [6] relates to Bacillus subtilis ATCC 6633. Nature of the series: Agar-plate disc-diffusion test. The following applies: 1 mg/ml suspension in water, 7-mm disc, 24-48 hours at 25-37° C. In kind it is cell-based.
Series [7] relates to Micrococcus luteus ATCC 9341. Nature of the series: Agar-plate disc-diffusion test. In kind it is cell-based. The following applies: 1 mg/ml suspension in water, 7-mm disc, 24-48 hours at 25-37° C.
Series [8] deals with Staphylococcus epidermidis EPI1. The following applies: agar dilution.
The test system of series [9] is Streptococcus pyogenes. Nature of the series: Experimental bacterial infection in mice. Format: in vivo. Conditions: two doses. The text has this:
(§1) The results of in vivo tests to evaluate the effectiveness of the derivatives against experimental bacterial infections in mice are given in Table III. […] 81, 233-235 (1961)].

Series [10] concerns Staphylococcus aureus. Nature of the series: Experimental bacterial infection in mice. Format: in vivo. The following applies: subcutaneous, two doses.
Source text: as §1

In series [11] the test system is Streptococcus pneumoniae Park I. Nature of the series: Agar-dilution test. In kind it is cell-based.
The test system of series [12] is Staphylococcus aureus V41. Nature of the series: Agar-dilution test. Format: cell-based. The following applies: penicillin-resistant strain.
Series [13] concerns Staphylococcus aureus X1.1. Nature of the series: Agar-dilution test.
For series [14], the system named is Staphylococcus epidermidis EPI2. Nature of the series: Agar-dilution test.
Series [15] has as its system Streptococcus Group D X66. Nature of the series: Agar-dilution test.

As for `CCCCCCCCCC(=O)N[C@@H](Cc1c[nH]c2ccccc12)C(=O)N[C@@H](CC(N)=O)C(=O)N[C@@H](CC(=O)O)C(=O)N[C@@H]1C(=O)NCC(=O)N[C@@H](CCCN)C(=O)N[C@@H](CC(=O)O)C(=O)N[C@H](C)C(=O)N[C@@H](CC(=O)O)C(=O)NCC(=O)N[C@H](CO)C(=O)N[C@@H]([C@H](C)CC(=O)O)C(=O)N[C@@H](CC(=O)c2ccccc2N)C(=O)O[C@@H]1C` [Example 6], the median lethal dose (LD50) in series [1] is over 300 mg/kg. The “Size of Zone of Inhibition” value was found to be 24 mm in series [2], 20 mm in [6], 29 mm in series [6] (grown on minimal nutrient agar) and 22 mm in [7]. Also, the MIC in [3] was 2 µg/mL (≈ 1.23 µM); in series [4] it was 2 µg/mL and 1 µg/mL; in series [5], 0.25 µg/mL and 0.125 µg/mL; in series [8] it was 2 µg/mL and 1 µg/mL; in [11], 1 µg/mL and 0.5 µg/mL; in series [12] it was 1 µg/mL and 0.5 µg/mL. For the same compound, the MIC in series [13] is 1 µg/mL and 0.5 µg/mL; in series [14], 1 µg/mL and 0.5 µg/mL; in series [15], 16 µg/mL (≈ 9.87 µM). Besides, the results for the ED50 in [9] (oral), in [9] (subcutaneous) and in [10] were 66 mg/kg × 2, 0.03 mg/kg × 2 and 0.28 mg/kg × 2, respectively.
For `CCCCCCCCCC(=O)N[C@@H](Cc1ccccc1)C(=O)N[C@@H](Cc1c[nH]c2ccccc12)C(=O)N[C@@H](CC(N)=O)C(=O)N[C@@H](CC(=O)O)C(=O)N[C@@H]1C(=O)NCC(=O)N[C@@H](CCCN)C(=O)N[C@@H](CC(=O)O)C(=O)N[C@H](C)C(=O)N[C@@H](CC(=O)O)C(=O)NCC(=O)N[C@H](CO)C(=O)N[C@@H]([C@H](C)CC(=O)O)C(=O)N[C@@H](CC(=O)c2ccccc2N)C(=O)O[C@@H]1C` [Example 7, NTrp-[N-(n-Decanoyl)-L-phenylalanyl]-A-21978C Nucleus], the LD50 in [1] was found to be 600 mg/kg. Further, the “Size of Zone of Inhibition” value in [2] worked out at 30 mm; in series [6], 22 mm; in series [6] (grown on minimal nutrient agar) it was 31 mm; in series [7], 24 mm. In addition, the MIC in series [3] amounted to 2 µg/mL (≈ 1.13 µM); in series [4], 1 µg/mL (≈ 0.566 µM); in [5], 0.25 µg/mL (≈ 0.141 µM); in series [8], 1 µg/mL (≈ 0.566 µM); in series [11], 0.5 µg/mL (≈ 0.283 µM); in series [12] it was 0.5 µg/mL (≈ 0.283 µM). The MIC in series [13] came out at 0.5 µg/mL (≈ 0.283 µM); in [14], 0.5 µg/mL (≈ 0.283 µM); in series [15] it was 8 µg/mL (≈ 4.53 µM). Moreover, the ED50 in [9] (oral) was over 200 mg/kg × 2; in series [9] (subcutaneous), 0.39 mg/kg × 2; in series [10], 0.7 mg/kg × 2 and 0.98 mg/kg × 2.
In the case of `CCCCCCCCCCCCOc1ccc(C(=O)N[C@@H](Cc2c[nH]c3ccccc23)C(=O)N[C@H](CC(N)=O)C(=O)N[C@@H](CC(=O)O)C(=O)N[C@@H]2C(=O)NCC(=O)N[C@@H](CCCN)C(=O)N[C@@H](CC(=O)O)C(=O)N[C@H](C)C(=O)N[C@@H](CC(=O)O)C(=O)NCC(=O)N[C@H](CO)C(=O)N[C@@H]([C@H](C)CC(=O)O)C(=O)N[C@@H](CC(=O)c3ccccc3N)C(=O)O[C@@H]2C)cc1` [Example 8, NTrp -p-(n-dodecyloxy)benzoyl-A-21978C Nucleus], the LD50 in series [1] is 67.5 mg/kg. Further, the “Size of Zone of Inhibition” value in [2] amounted to 20 mm; in series [6], 13 mm; in series [6] (grown on minimal nutrient agar) it was 20 mm; in series [7], 18 mm. For the same compound, the MIC in [3] is 1 µg/mL (≈ 0.57 µM); in series [4] it was 2 µg/mL (≈ 1.14 µM); in [5], 0.25 µg/mL (≈ 0.142 µM); in series [8], 4 µg/mL (≈ 2.28 µM); in series [12], 1 µg/mL (≈ 0.57 µM); in [13], 1 µg/mL (≈ 0.57 µM). The MIC in [14] and in series [15] was 2 µg/mL (≈ 1.14 µM) in each case. The ED50 is on record as over 200 mg/kg × 2 in series [9] (oral), 0.31 mg/kg × 2 in series [9] (subcutaneous) and 3.35 mg/kg × 2 in series [10].
